The assay has as its target T1, human Nav1.7 (Homo sapiens, UniProt Q15858).
T1 construct: expressed in transfected cells
In words: Assessment of Nav1.7 activity on PatchXpress (voltage dependence / slow inactivation parameters). It is filed as cell-based. As to conditions: compound at 10 μM, relative to 0.2% DMSO vehicle control; for hNav1.7: Reduction in current at 20 mV (normalized data) Delta Ratio: before/after 30 sec conditioning pulse at 20 mV; for hNav1.7: Shift in voltage dependence of inactivation (mV) Delta Vhalf: PatchXpress. As for the experimental part: The generation of a HEK 293F cell line stably expressing human Nav1.7/Navp1 was achieved by co-transfecting human SCN9A and human SCN1B cDNAs, subcloned into plasmid vectors, utilizing standard transfection techniques. Clones were selected using appropriate selection agents (0.3 mg/mL Zeocin and 0.8 mg/mL Geneticin) and maintained in Dulbecco's Modified Eagle medium, 10% fetal bovine serum, 1% non-essential amino acids to ˜80% confluence at 37° C. in a humidified incubator with 95% atmosphere and 5% CO2.
On the day of each experiment, cells that were grown to 80% confluence in a T75 flask were harvested for use on PatchXpress (Molecular Devices, CA, USA). Following a recovery period at 37° C. in a humidified incubator with 95% atmosphere and 5% CO2 in Dulbecco's Modified Eagle Medium, the media was replaced with an external recording solution containing (in mM): 90 TEACI, 50 NaCl, 1.8 CaCl2, 1 MgCl2, 10 HEPES, 10 glucose, adjusted to pH 7.4 with TEAOH and 300 mOsm with sucrose. The internal recording solution contained (in mM): 129 CsF, 2 MgCl2, 11 EGTA, 10 HEPES, 6 NaCl, 3 Na2ATP adjusted to pH 7.2 with CsOH and 280 mOsm with sucrose. The automated liquid handling facility of PatchXpress dispensed cells and added compound. Modulation of Nav1.7 channels by compounds was assessed by promoting the channels into the inactivated state using a conditioning voltage pulse of variable amplitude, followed by a brief hyperpolarizing pulse with a subsequent depolarized voltage step to measure the current amplitude in the presence and absence of compound. Compounds were assayed at 10 μM. Based upon this Patch express protocol, four electrophysiological parameters were measured relative to a 0.2% DMSO vehicle control (Table 2).

T1 sequence (Q15858 whole entry): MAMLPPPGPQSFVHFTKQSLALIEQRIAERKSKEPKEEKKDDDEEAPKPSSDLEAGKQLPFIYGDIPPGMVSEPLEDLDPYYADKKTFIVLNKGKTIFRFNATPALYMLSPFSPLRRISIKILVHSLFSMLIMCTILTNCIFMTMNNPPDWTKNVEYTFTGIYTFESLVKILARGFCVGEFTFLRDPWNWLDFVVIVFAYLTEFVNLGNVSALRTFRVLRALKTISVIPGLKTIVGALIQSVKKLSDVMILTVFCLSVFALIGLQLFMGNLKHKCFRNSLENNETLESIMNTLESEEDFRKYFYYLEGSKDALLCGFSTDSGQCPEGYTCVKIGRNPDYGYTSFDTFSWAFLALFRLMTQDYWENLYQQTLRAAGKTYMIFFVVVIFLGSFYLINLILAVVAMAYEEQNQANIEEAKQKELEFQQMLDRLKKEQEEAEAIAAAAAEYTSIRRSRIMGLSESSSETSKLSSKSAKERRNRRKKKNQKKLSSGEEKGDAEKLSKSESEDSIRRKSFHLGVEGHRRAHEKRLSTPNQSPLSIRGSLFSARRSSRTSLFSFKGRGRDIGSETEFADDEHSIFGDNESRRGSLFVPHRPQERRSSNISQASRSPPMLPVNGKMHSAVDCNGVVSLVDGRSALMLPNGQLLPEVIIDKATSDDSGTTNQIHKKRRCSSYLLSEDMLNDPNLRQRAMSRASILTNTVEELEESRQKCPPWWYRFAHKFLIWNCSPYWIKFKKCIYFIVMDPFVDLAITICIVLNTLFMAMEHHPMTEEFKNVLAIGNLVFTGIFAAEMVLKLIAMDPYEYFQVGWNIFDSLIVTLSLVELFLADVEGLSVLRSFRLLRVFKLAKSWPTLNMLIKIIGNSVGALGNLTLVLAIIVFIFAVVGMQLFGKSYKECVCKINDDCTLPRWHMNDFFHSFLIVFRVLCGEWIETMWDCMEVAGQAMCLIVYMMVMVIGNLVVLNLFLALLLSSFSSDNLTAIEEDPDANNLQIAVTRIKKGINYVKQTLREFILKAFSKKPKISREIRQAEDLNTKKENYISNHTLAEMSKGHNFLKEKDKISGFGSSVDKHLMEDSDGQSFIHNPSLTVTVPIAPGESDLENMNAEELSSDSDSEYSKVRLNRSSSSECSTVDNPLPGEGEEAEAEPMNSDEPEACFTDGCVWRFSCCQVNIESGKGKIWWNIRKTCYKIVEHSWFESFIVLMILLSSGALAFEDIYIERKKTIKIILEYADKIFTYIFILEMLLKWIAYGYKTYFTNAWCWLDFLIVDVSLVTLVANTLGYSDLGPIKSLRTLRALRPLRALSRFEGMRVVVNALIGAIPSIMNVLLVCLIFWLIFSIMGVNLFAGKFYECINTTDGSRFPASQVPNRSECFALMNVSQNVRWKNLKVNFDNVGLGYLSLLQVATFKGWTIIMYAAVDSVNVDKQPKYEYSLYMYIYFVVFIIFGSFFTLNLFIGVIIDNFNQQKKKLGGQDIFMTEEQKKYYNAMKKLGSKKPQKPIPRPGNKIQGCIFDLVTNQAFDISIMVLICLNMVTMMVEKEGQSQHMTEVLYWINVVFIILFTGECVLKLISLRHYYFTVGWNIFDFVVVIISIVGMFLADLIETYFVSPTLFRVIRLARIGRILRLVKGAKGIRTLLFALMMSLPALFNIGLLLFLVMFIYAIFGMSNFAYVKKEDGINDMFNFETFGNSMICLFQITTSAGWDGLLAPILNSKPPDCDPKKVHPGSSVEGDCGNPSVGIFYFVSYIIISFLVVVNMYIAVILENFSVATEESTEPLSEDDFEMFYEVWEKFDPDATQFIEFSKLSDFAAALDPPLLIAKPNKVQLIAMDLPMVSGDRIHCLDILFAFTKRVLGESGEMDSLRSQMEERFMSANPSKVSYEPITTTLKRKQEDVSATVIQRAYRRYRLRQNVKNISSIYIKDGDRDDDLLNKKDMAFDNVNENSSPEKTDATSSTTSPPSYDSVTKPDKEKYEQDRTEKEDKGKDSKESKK
T1 sequence (Q07699 19-218 partner): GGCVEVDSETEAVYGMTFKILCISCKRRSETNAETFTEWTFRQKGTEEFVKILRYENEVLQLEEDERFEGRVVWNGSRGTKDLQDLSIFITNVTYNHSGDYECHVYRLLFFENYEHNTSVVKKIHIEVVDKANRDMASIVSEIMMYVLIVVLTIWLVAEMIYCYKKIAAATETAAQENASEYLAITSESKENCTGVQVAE

In the case of `CC1(c2cc(C(F)(F)F)cc(C(F)(F)F)c2)NC(=O)NC1=O` (stereo not drawn) [Compound 42, 5-(3,5-bis(trifluoromethyl)phenyl)-5-methylimidazolidine-2,4-dione], the “hNav1.7: Reduction in current at 20 mV (normalized data) Delta Ratio” value came to 0.02, the “hNav1.7: Voltage dependence of activation (mV) VDEP” value is recorded as −6.60 mV, the “hNav1.7: Voltage dependence of fast inactivation (mV) VDEP” value is −2.50 mV and the “hNav1.7: Shift in voltage dependence of inactivation (mV) Delta Vhalf” value (from here on “hNav1.7: Shift … (mV) Delta Vhalf”) came out at 0.50 mV.
For the molecule `Cc1cccc(C)c1OCC(C)NC(=O)CC(=O)NC1CCNCC1` (stereo not drawn) [Compound 34, N1-(1-(2,6-dimethylphenoxy)propan-2-yl)-N3-(piperidin-4-yl)malonamide], the “hNav1.7: Reduction in current at 20 mV (normalized data) Delta Ratio” value was −0.03, the “hNav1.7: Voltage dependence of activation (mV) VDEP” value is −6.30 mV, the “hNav1.7: Voltage dependence of fast inactivation (mV) VDEP” value is given as −5.10 mV and the “hNav1.7: Shift … (mV) Delta Vhalf” value was −2.30 mV.
The corresponding values for `Cc1cccc(C)c1OCC(C)NC(=O)[C@@H]1CCCN1` (stereo partly drawn) [Compound 15, (2S)-N-(1-(2,6-dimethylphenoxy)propan-2-yl)pyrrolidine-2-carboxamide] are −0.16, −6.00 mV, −4.90 mV and −20.60 mV.
Consider `N[C@H](Cc1cccc(C(F)(F)F)c1)C(=O)NCc1nc2c(C(F)(F)F)cc(C(F)(F)F)cc2[nH]1` [Compound 75, (R)-2-amino-N-((4,6-bis(trifluoromethyl)-1H-benzo[d]imidazol-2-yl)methyl)-3-(3-(trifluoromethyl)phenyl)propanamide], for which the “hNav1.7: Reduction in current at 20 mV (normalized data) Delta Ratio” value is recorded as −0.06, the “hNav1.7: Voltage dependence of activation (mV) VDEP” value is recorded as −15.4 mV, the “hNav1.7: Voltage dependence of fast inactivation (mV) VDEP” value is on record as −3.7 mV and the “hNav1.7: Shift … (mV) Delta Vhalf” value was −2.3 mV.
The corresponding values for `O=C(CCc1nc2cc(F)cc(F)c2[nH]1)N1CCNCC1` [Compound 66, 3-(4,6-difluoro-1H-benzo[d]imidazol-2-yl)-1-(piperazin-1-yl)propan-1-one] are −0.14, −14.5 mV, −6.9 mV and −12.0 mV.
In the same order, the values of `Cc1cccc(C)c1OCC(C)NC(=O)CN1CCNCC1=O` (stereo not drawn) [Compound 35, N-(1-(2,6-dimethylphenoxy)propan-2-yl)-2-(2-oxopiperazin-1-yl)acetamide] are −0.06, −7.40 mV, −4.40 mV and −3.00 mV.
In the same order, the values of `NC1CCN(C(=O)Cc2nc3cc(C(F)(F)F)cc(C(F)(F)F)c3[nH]2)CC1` [Compound 90, 1-(4-aminopiperidin-1-yl)-2-(4,6-bis(trifluoromethyl)-1H-benzo[d]imidazol-2-yl)ethan-1-one] are 0.01, −2.9 mV, 0.1 mV and 2.3 mV.
For `CC[C@@H](C)[C@@H](N)C(=O)NCCOc1cc(F)cc(C(F)(F)F)c1` [Compound 19, (2R,3R)-2-amino-N-(2-(3-fluoro-5-(trifluoromethyl)phenoxy)ethyl)-3-methylpentanamide], the “hNav1.7: Reduction in current at 20 mV (normalized data) Delta Ratio” value is on record as −0.08, the “hNav1.7: Voltage dependence of activation (mV) VDEP” value is reported as −8.00 mV, the “hNav1.7: Voltage dependence of fast inactivation (mV) VDEP” value is −3.50 mV and the “hNav1.7: Shift … (mV) Delta Vhalf” value is −10.00 mV.
The corresponding values for `N[C@H](C(=O)NCCOc1cc(C(F)(F)F)cc(C(F)(F)F)c1)c1ccccc1` [Compound 9, (S)-2-amino-N-(2-(3,5-bis(trifluoromethyl)phenoxy)ethyl)-2-phenylacetamide] are −0.21, −8.10 mV, −7.90 mV and −18.30 mV.
In the same order, the values of `Cc1cccc(C)c1OCC(C)NC(=O)CCN1CCNCC1=O` (stereo not drawn) [Compound 36, N-(1-(2,6-dimethylphenoxy)propan-2-yl)-3-(2-oxopiperazin-1-yl)propanamide] are −0.04, −12.90 mV, −5.00 mV and −2.90 mV.
`O=C1CNCCN1CCCc1nc2cc(C(F)(F)F)cc(C(F)(F)F)c2[nH]1` [Compound 69]: the “hNav1.7: Reduction in current at 20 mV (normalized data) Delta Ratio” value is reported as −0.09, the “hNav1.7: Voltage dependence of activation (mV) VDEP” value is on record as −9.2 mV, the “hNav1.7: Voltage dependence of fast inactivation (mV) VDEP” value is −4.9 mV and the “hNav1.7: Shift … (mV) Delta Vhalf” value was −7.5 mV.
As for `O=C(CN1CCNCC1=O)NCC(F)(F)F` [Compound 47, 2-(2-oxopiperazin-1-yl)-N-(2,2,2-trifluoroethyl)acetamide], the “hNav1.7: Reduction in current at 20 mV (normalized data) Delta Ratio” value is on record as −0.02, the “hNav1.7: Voltage dependence of activation (mV) VDEP” value is −8.90 mV, the “hNav1.7: Voltage dependence of fast inactivation (mV) VDEP” value is on record as −4.40 mV and the “hNav1.7: Shift … (mV) Delta Vhalf” value is recorded as −2.50 mV.
The corresponding values for `CC(C)(C)OC(=O)N[C@H](Cc1cccc(C(F)(F)F)c1)C(=O)NCc1nc2ccc(Br)cc2[nH]1` [Compound 72, tert-butyl (R)-(1-(((6-bromo-1H-benzo[d]imidazol-2-yl)methyl)amino)-1-oxo-3-(3-(trifluoromethyl)phenyl)propan-2-yl)carbamate] are −0.07, −3.3 mV, −7.3 mV and −6.7 mV.
The corresponding values for `O[C@@H]1CN[C@H](c2nc3cc(C(F)(F)F)cc(C(F)(F)F)c3[nH]2)C1` [Compound 85, (3S,5S)-5-(5,7-bis(trifluoromethyl)-1H-benzo[d]imidazol-2-yl)pyrrolidin-3-ol] are 0.03, −3.4 mV, −3.2 mV and 0.3 mV.
Take `CC(C)CC(N)C(=O)N[C@H](C)COc1cc(C(F)(F)F)cc(C(F)(F)F)c1` (stereo partly drawn) [Compound 5, 2-amino-N-((R)-1-(3,5-bis(trifluoromethyl)phenoxy)propan-2-yl)-4-methylpentanamide]: the “hNav1.7: Reduction in current at 20 mV (normalized data) Delta Ratio” value was −0.26, the “hNav1.7: Voltage dependence of activation (mV) VDEP” value is listed as −4.60 mV, the “hNav1.7: Voltage dependence of fast inactivation (mV) VDEP” value was −6.30 mV and the “hNav1.7: Shift … (mV) Delta Vhalf” value is reported as −25.20 mV.
`O=C(NCC12CC3CC(CC(C3)C1)C2)[C@H]1CCCN1` [Compound 44, (R)-N-(adamantan-1-ylmethyl)pyrrolidine-2-carboxamide]: the “hNav1.7: Reduction in current at 20 mV (normalized data) Delta Ratio” value was −0.11, the “hNav1.7: Voltage dependence of activation (mV) VDEP” value is on record as −13.20 mV, the “hNav1.7: Voltage dependence of fast inactivation (mV) VDEP” value is −6.00 mV and the “hNav1.7: Shift … (mV) Delta Vhalf” value is listed as −5.40 mV.
As to `CC(C)(C)OC(=O)N[C@H](Cc1cccc(C(F)(F)F)c1)C(=O)NCc1nc2ccc(-c3ccc(F)c(Cl)c3)cc2[nH]1` [Compound 76, tert-butyl (R)-(1-(((6-(3-chloro-4-fluorophenyl)-1H-benzo[d]imidazol-2-yl)methyl)amino)-1-oxo-3-(3-(trifluoromethyl)phenyl)propan-2-yl)carbamate], the “hNav1.7: Reduction in current at 20 mV (normalized data) Delta Ratio” value is reported as −0.06, the “hNav1.7: Voltage dependence of activation (mV) VDEP” value is on record as −11.4 mV, the “hNav1.7: Voltage dependence of fast inactivation (mV) VDEP” value is reported as −3.9 mV and the “hNav1.7: Shift … (mV) Delta Vhalf” value is given as −0.3 mV.
As to `N[C@H](c1ccccc1)c1nc2cc(C(F)(F)F)cc(C(F)(F)F)c2[nH]1` [Compound 57, (R)-(4,6-bis(trifluoromethyl)-1H-benzo[d]imidazol-2-yl)(phenyl)methanamine], the “hNav1.7: Reduction in current at 20 mV (normalized data) Delta Ratio” value is on record as −0.21, the “hNav1.7: Voltage dependence of activation (mV) VDEP” value is on record as −4.7 mV, the “hNav1.7: Voltage dependence of fast inactivation (mV) VDEP” value is given as −4.8 mV and the “hNav1.7: Shift … (mV) Delta Vhalf” value is given as −10.4 mV.

For the origin of these results see patent US20170107203A1, “HETEROCYCLIC INHIBITORS OF THE SODIUM CHANNEL” (EPIRUS BIOPHARMACEUTICALS, INC., priority 2014, published 2017).
